One series deals with salmonella typhimurium. The note with it: cited from earlier work.
On the set-up of series [1]: method as in Investigator's Brochure (IB) 12. The note with it: ref Investigator's Brochure (IB) 12, cited from earlier work.
Another series deals with SD rats. Kind of series: Long-term toxicity assay, SD rats. Format: in vivo. The note with it: 3 mg/kg x 0.162 x 60 kg. From the text:
Shanghai Haihe Biopharma Co., Ltd. Protocol No.: CYH33-101, Version: 5.0 […]
in hepatocytes was sign ificantly higher in dogs than in other species. The extent of hydrolytic metabolism of amide bonds in monk ey hepatocytes was low, but the extent of oxidative metabolism (M5, M6) was higher than that in other animal species. Oxidative metabolites of CYH33 were not detected in hum an hepatocytes, so th e metabolic effect of oxidative metabolic enzymes in human liver on C YH33 was not evaluated. The liver and intestine homogenates of dogs were collected, confirming that the amide hydrolysis of CYH33 was mainly catalyzed by carboxylesterase in liver. […]
transport across Caco-2 cells in the concentration range of 2.00 - 10.0 µM.
For detailed results of nonclinical pharmacokinetic and product metabol ism studies of […]
1.2.3 Results of Nonclinical Toxicological Study […]
tidal volume (TV), respiratory volume (MV) per minute and frequency of respiration (Rf) […]
on the central n ervous system (CNS) noticed.
The acute toxicity assay confirmed that the MTD was ≥ 600 mg/kg in SD rats, and the maximum tolerated dose (MTD) was >120 mg/kg in beagle dogs. The long-term toxicity […]
were greater than those in males, and the highest non-severely toxic dose (HNSTD) was 8 mg/kg in males and 3 mg/kg in females. […]

In series [2] the test system is Beagle dogs. More on the design: method as in Investigator's Brochure (IB) 12. The note with it: long-term, ref Investigator's Brochure (IB) 12; cited from earlier work.
Another series has as its system human hepatocytes. On the set-up: method as in Investigator's Brochure (IB) 12. The note with it: ref Investigator's Brochure (IB) 12; cited from earlier work.
Another series relates to CYP1A2. More on the design: method as in Investigator's Brochure (IB) 12. The note with it: up to 100 µM; ref Investigator's Brochure (IB) 12; cited from earlier work.
On the set-up of series [3]: method as in Study Protocol CYH33-101 Table 2. The note with it: ref Study Protocol CYH33-101 Table 2; cited from earlier work.
For a further series, the system named is CHL. On the set-up: method as in Investigator's Brochure (IB) 12. The note with it: ref Investigator's Brochure (IB) 12; cited from earlier work.
Series [4] relates to Beagle dogs. More on the design: method as in Investigator's Brochure (IB) 12. To be noted: ref Investigator's Brochure (IB) 12; cited from earlier work.
Details of series [5]: method as in Investigator's Brochure (IB) 12. To be noted: dogs, without concentration dependency; ref Investigator's Brochure (IB) 12; cited from earlier work.
On the set-up of series [6]: method as in Study Protocol CYH33-101 Table 2. To be noted: ref Study Protocol CYH33-101 Table 2, cited from earlier work.
On the set-up of series [7]: method as in Investigator's Brochure (IB) 12. The note with it: ref Investigator's Brochure (IB) 12, cited from earlier work. The source holds these as a separate data set.

≈ marks a conversion by molar mass, not a printed value. Some results are limits rather than exact numbers.

On to `COC(=O)Nc1cc(C(F)(F)F)c(-c2nc(N3CCOCC3)c3cc(CN4CCN(S(C)(=O)=O)CC4)cn3n2)cn1` [CYH33, methyl (5-(6-((4-(methylsulfonyl)piperazin-1-yl)methyl)−4-morpholinopyrrolo[2,1-f][1,2,4]triazin-2-yl)−4-(trifluoromethyl)pyridin-2-yl)carbamate], for which, in the series on salmonella typhimurium, the “reverse mutation assay (Ames test) result” value is given as “negative”. Moreover, in series [1], the “number of metabolites detected in vivo” value is on record as 14 and the urinary excretion result was “less than 1 % of the dose”. Further, the “cumulative excretion of parent drug in feces” value in series [1] (within 96 h after administration) is listed as “approximately 24 % of the dose”. Besides, the “human equivalent dose (HED) of long-term HNSTD of rats (females), critical toxic dose” value in the series on SD rats was “about 30 mg”. Moreover, the “highest non-severely toxic dose (HNSTD)” value with Beagle dogs [2] was 0.2 mg/kg. In the series on human hepatocytes, the “oxidative metabolites in human hepatocytes” value is recorded as “not detected”. Further, the “inhibition of CYP1A2” value in the series with CYP1A2 is recorded as “did not inhibit”. In addition, in series [3], the “log P” value is given as 2.89. In addition, in the series on CHL, the “CHL chromosomal aberration assay result” value was “negative”. For the same compound, in the series on Beagle dogs [4], the “maximum tolerated dose (MTD), acute toxicity” value is recorded as more than 120 mg/kg. The “plasma protein binding (PPB)” value in series [5] is listed as 97.1%. Besides, the Solubility in [6] (in H2O) was 1210 µg/mL (≈ 2020 µM). In series [6] (pH <3), the “Solubility, pH dependent” value is on record as “High solubility at pH <3”. In addition, the “exposure in tissues relative to plasma” value in series [7] (liver, adrenal gland, digestive tract, pancreas, kidney, spleen, ovaries) is “more than 4 times”. Besides, in series [7], the “concentration of parent drug at 72 h after administration relative to peak concentration” value is listed as 0.5%; the “distribution into the red blood cells” value is “basically not distributed”; the “exposure in brain tissue relative to plasma” value is on record as “approximately 20%”; the “exposure in tissues, female rats relative to male rats (higher)” value is reported as 7 - 18 fold.

(Values after PMC9669016, “First-in-human phase Ia study of the PI3Kα inhibitor CYH33 in patients with solid tumors” (Nature Communications, 2022).)
